Measurements taken from publication PMC6155683, “Pharmacokinetics Studies of 12 Alkaloids in Rat Plasma after Oral Administration of Zuojin and Fan-Zuojin Formulas” (Molecules : A Journal of Synthetic Chemistry and Natural …, 2017).
Read-outs that look alike come from different tables or passages of the source. Each block holds one compound with its values, some of them ahead of it.

Columns and labels:
[1] = PK study of the 12 alkaloids in rat plasma after oral administration of ZJ and FZJ extract (LC–MS/MS); format: in vivo
Method: The time schedule included 15 time-points and six rats were sampled at each time-point. All the rats were orally administered with ZJ extract (suspended in water) at a dose of 3.38 g/kg body weight (dosages of the 12 alkaloids were shown in Table S4), equivalent to crude drug dose of 12 g/kg body weight. Blood samples were collected from the suborbital vein of the rats at 10, 20, 30, 60, 90, 120, 180, 240, 300, 330, 360, 480, 720, 1440, 2160 min after administration, and centrifuged immediately at 5000 rpm for 10 min. The plasma samples were stored at −20 °C until analysis.
Similarly, the time schedule of other rats included 15 time-points and six rats were orally administered with FZJ extract at a dose of 3.76 g/kg body weight (also equivalent to crude drug dose of 12 g/kg body weight, Table S4). Blood samples were collected and treated as mentioned above in the PK study of ZJ extract.
PK parameters of the 12 alkaloids including AUC0→t, AUC0→∞, mean retention time (MRT0→t, MRT0→∞), and elimination half-life (t1/2) were calculated with non-compartmental method by DAS 2.0 software (Mathematical Pharmacology Professional Committee of China, Shanghai, China). Maximum plasma drug concentration (Cmax) and time to reach the maximum plasma drug concentration (Tmax) were observed directly from the detected C–T data. The results were expressed as arithmetic mean ± standard deviation (SD).

[2] = Stability of analytes in rat plasma under storage conditions; format: physicochemical; settings: n = 6; for Stability RE, 3 freeze-thaw cycles / Stability RE, 30 days at −20 °C: rat plasma; for Stability RE, processed samples' stability: room temperature 24 h
Method: The stabilities of analytes in plasma were assessed by analyzing the QC samples at three concentration levels under the following storage conditions: after three freeze (−20 °C)-thaw (room temperature) cycles; stored at −20 °C for 30 days, and comparing the results with those of freshly prepared QC samples. Stabilities of the processed samples at room temperature for 24 h were also assessed.

[3] = cited from earlier work
[4] = cited from earlier work; remark: listed apart in the source
[5] = cited from earlier work; remark: listed apart in the source
[6] = jejunum vs ileum and colon; cited from earlier work
P-gp = settings: cited from earlier work

AUC(0-t) ([1]; 3.38 g/kg, rat plasma, oral ZJ extract, mean ± SD, n = 6, read-out: AUC0→t): 277 ± 50.1 ng·h/mL | AUC(0-inf) ([1]; 3.38 g/kg, rat plasma, oral ZJ extract, mean ± SD, n = 6, read-out: AUC0→∞): 300 ± 55.3 ng·h/mL | Cmax ([1]; 3.38 g/kg, rat plasma, oral ZJ extract, mean ± SD, n = 6, read-out: Cmax): 109 ± 48.3 ng/mL | MRT last ([1]; 3.38 g/kg, rat plasma, oral ZJ extract, mean ± SD, n = 6, read-out: MRT0→t (converted)): 6.46 h | MRT inf ([1]; 3.38 g/kg, rat plasma, oral ZJ extract, mean ± SD, n = 6, read-out: MRT0→∞ (converted)): 8.58 h | half-life ([1]; 3.38 g/kg, rat plasma, oral ZJ extract, mean ± SD, n = 6, read-out: t1/2): 6.3 ± 3.24 h | Tmax ([1]; 3.38 g/kg, rat plasma, oral ZJ extract, read-out: Tmax (converted)): 1.5 h | AUC(0-t) ([1]; 3.76 g/kg, rat plasma, oral FZJ extract, mean ± SD, n = 6, read-out: AUC0→t): 48.1 ± 9.6 ng·h/mL | AUC(0-inf) ([1]; 3.76 g/kg, rat plasma, oral FZJ extract, mean ± SD, n = 6, read-out: AUC0→∞): 50.2 ± 10.7 ng·h/mL | Cmax ([1]; 3.76 g/kg, rat plasma, oral FZJ extract, mean ± SD, n = 6, read-out: Cmax): 23.7 ± 7.42 ng/mL | MRT last ([1]; 3.76 g/kg, rat plasma, oral FZJ extract, mean ± SD, n = 6, read-out: MRT0→t (converted)): 4.07 h | MRT inf ([1]; 3.76 g/kg, rat plasma, oral FZJ extract, mean ± SD, n = 6, read-out: MRT0→∞ (converted)): 4.68 h | half-life ([1]; 3.76 g/kg, rat plasma, oral FZJ extract, mean ± SD, n = 6, read-out: t1/2): 2.22 ± 0.835 h | Tmax ([1]; 3.76 g/kg, rat plasma, oral FZJ extract, read-out: Tmax (converted)): 3 h | Tsec (time of the secondary peak in C–T curve) ([1]; rat plasma, oral FZJ extract): 30 min | Csec (drug concentration of the secondary peak in C–T curve) ([1]; rat plasma, oral FZJ extract, mean ± SD, n = 6): 11.64 ± 7.28 ng/mL | Tsec (time of the secondary peak in C–T curve) ([1]; rat plasma, oral ZJ extract): 300 min | Csec (drug concentration of the secondary peak in C–T curve) ([1]; rat plasma, oral ZJ extract, mean ± SD, n = 6): 44.68 ± 21.28 ng/mL | Stability RE, 3 freeze-thaw cycles ([2]; high QC concentration): −14.86% | Stability RE, 30 days at −20 °C ([2]; high QC concentration): −14.65% | Stability RE, 3 freeze-thaw cycles ([2]; low QC concentration): 7.87% | Stability RE, 30 days at −20 °C ([2]; low QC concentration): −8.36% | Stability RE, 3 freeze-thaw cycles ([2]; medium QC concentration): −1.36% | Stability RE, 30 days at −20 °C ([2]; medium QC concentration): −13.68% | Stability RE, processed samples' stability ([2]; high QC concentration): −13.71% | Stability RE, processed samples' stability ([2]; low QC concentration): 9.52% | Stability RE, processed samples' stability ([2]; medium QC concentration): 4.57%
SMILES: COc1ccc2cc3[n+](cc2c1OC)CCc1cc2c(cc1-3)OCO2 [berberine]
absolute bioavailability [3]: less than 1% | berberine existed as prototype ([4]; 0–36 h after intragastric administration): at least 56% | berberine remained in the GI tract ([4]; at 36 h after intragastric administration): 24% | primary elimination route in vivo [5]: renal excretion | absorption rate constant (Ka) compared between intestinal sites [6]: greater than that at ileum and colon | P-gp substrate (P-gp; not told): P-gp substrates

SMILES: c1c2c(cc3c1OCO3)-c1cc3ccc4c(c3c[n+]1CC2)OCO4 [coptisine]
Tsec (time of the secondary peak in C–T curve) ([1]; rat plasma, oral ZJ extract): 90 min | Csec (drug concentration of the secondary peak in C–T curve) ([1]; rat, in vivo, po): 4.96 ± 2.29 ng/mL | AUC(0-inf) ([1]; rat, in vivo, po, 3.38 g/kg): 71.6 ± 10.7 ng·h/mL | AUC(0-t) ([1]; rat, in vivo, po, 3.38 g/kg): 68.7 ± 10.8 ng·h/mL | Cmax ([1]; rat, in vivo, po, 3.38 g/kg): 14.1 ± 7.75 ng/mL | MRT inf ([1]; rat, in vivo, po, 3.38 g/kg): 12.3 h | MRT last ([1]; rat, in vivo, po, 3.38 g/kg): 10.7 h | Tmax ([1]; rat, in vivo, po, 3.38 g/kg): 5 h | half-life ([1]; rat, in vivo, po, 3.38 g/kg): 8.01 ± 1.92 h | AUC(0-inf) ([1]; rat, in vivo, po, 3.76 g/kg): 11.8 ± 1.25 ng·h/mL | AUC(0-t) ([1]; rat, in vivo, po, 3.76 g/kg): 11 ± 1.64 ng·h/mL | Cmax ([1]; rat, in vivo, po, 3.76 g/kg): 4.78 ± 2.31 ng/mL | MRT inf ([1]; rat, in vivo, po, 3.76 g/kg): 5.2 h | MRT last ([1]; rat, in vivo, po, 3.76 g/kg): 4.18 h | Tmax ([1]; rat, in vivo, po, 3.76 g/kg): 3 h | half-life ([1]; rat, in vivo, po, 3.76 g/kg): 2.93 ± 1.22 h | Stability RE, 3 freeze-thaw cycles ([2]; high QC concentration): 0.97% | Stability RE, 30 days at −20 °C ([2]; high QC concentration): 0.65% | Stability RE, 3 freeze-thaw cycles ([2]; low QC concentration): 6.92% | Stability RE, 30 days at −20 °C ([2]; low QC concentration): −11.58% | Stability RE, 3 freeze-thaw cycles ([2]; medium QC concentration): 5.77% | Stability RE, 30 days at −20 °C ([2]; medium QC concentration): −8.99% | Stability RE, processed samples' stability ([2]; high QC concentration): −8.19% | Stability RE, processed samples' stability ([2]; low QC concentration): −10.47% | Stability RE, processed samples' stability ([2]; medium QC concentration): −2.14% | absorption rate constant (Ka) compared between intestinal sites [6]: better absorption rate at colon compared with jejunum | P-gp substrate (P-gp): P-gp substrates
